The results in this text go back to article PMC6272715, “Discovery of Novel Small Molecule Anti-HCV Agents via the CypA Inhibitory Mechanism Using O-Acylation-Directed Lead Optimization” (Molecules, 2015).

Where only a bound is given, the exact number is not on record here.

Series [1] has as its system JFH1-2a (S282T) virus. As to the kind of experiment: HCV virus assay, mutant JFH1-2a (S282T) virus strain. The following applies: Hepatitis C virus, read-out: Anti-HCV Activity (Virus Assay) EC50 ± SD JFH1-2a (S282T). It is filed as cell-based.
A short description of series [2]: Cell proliferation (cytotoxicity) assay, WST-1. Type of series: cell-based. The settings on record: human, Huh 7.5.1 cells. Put shortly:
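Huh7.5.1 cells were seeded at 2 × 10^4 per well overnight, then exposed to serially diluted compounds for 48 h.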
In general terms: Tetrazolium dyes change colour on reduction, which living cells bring about.

Series [3] has as its target CypA (Homo sapiens, UniProt P62937). Description: CypA enzyme inhibition assay (chymotrypsin-coupled PPIase assay). Type of series: biochemical. The settings on record: mean ± SD of five independent experiments. The procedure:
The PPIase activity of CypA was conducted in a coupled assay with chymotrypsin using the synthetic tetrapeptide N-succinyl-Ala-Ala-Pro-Phe-p-nitroanilide (Sigma, Shanghai, China) as described in [34] with small modifications. The assay buffer (20 mM Tris-HCl, 50 mM NaCl, pH 7.8) and CypA were precooled at 4 °C and mixed with 0.4 mg∙mL^−1 chymotrypsin (20 mg∙mL^−1 in 1 mM HCl). The reaction was initiated by adding peptide substrate (2 mg∙mL^−1 in 500 mM LiCl in tetrahydrofuran (THF)). […] Absorbance readings were collected every 0.1 s and the temperature was controlled at 4 °C during the assay. The progress curves were analyzed by nonlinear least-squares fit. The inhibition assays of compounds were performed in the same manner as above-mentioned. […] of test compounds in DMSO, at various concentrations, was added to the CypA solution in the assay buffer. After being preincubated for 1 h at 4 °C, the assay was started by the addition of chymotrypsin and the substrate. To calculate the half-maximal inhibitory concentration (IC50), a percent of the remaining PPIase activity was plotted against the common logarithm of the compound concentration, and the data were fitted using the sigmoidal fitting model of Origin 7.0 software.

CypA, sequence (P62937 whole entry): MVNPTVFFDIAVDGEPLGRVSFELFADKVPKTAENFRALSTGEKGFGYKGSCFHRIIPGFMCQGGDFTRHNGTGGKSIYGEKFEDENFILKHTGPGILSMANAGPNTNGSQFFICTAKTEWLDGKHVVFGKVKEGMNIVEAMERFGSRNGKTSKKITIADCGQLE

As a reminder, the EC50 is the concentration giving half of the maximal effect. Broadly, the CC50 is the concentration giving 50% cytotoxicity. Lower therefore signals harm at low concentration. For orientation: IC50 means the midpoint of a concentration-inhibition curve. In the case of `CCCCCCCC(=O)Oc1cccc(O)c1C(=O)NC(=O)NC1c2ccccc2-c2ccccc21` [Compound 25, 1-(2-Hydroxy-6-n-Octanoyloxybenzoyl)-3-(9H-fluoren-9-yl)-urea], the EC50 in series [1] came to 0.29 ± 0.07 µM. The CC50 at 48 h was greater than 16 µM in series [2] (Table 4, 48 h) and greater than 20 µM in series [2] (Table 5). The molecule further returned an IC50 in series [3] greater than 5 µM.
